Experimental data taken from US12440567B2, “Aqueous antibody formulation stabilized by antioxidants for parenteral administration” (AMGEN INC., priority 2007, dated 2025).
Each block holds one compound with its values, some of them ahead of it.

How the values were obtained:
[1] = cited from earlier work
[2] = test system: Antibody A (IgG1); experiment: SEC-HPLC aggregation of Antibody A (IgG1) after UV-B exposure; format: physicochemical; conditions: for UV-B protection of Antibody A (aggregation, SEC-HPLC): Antibody A 1 mg/mL, pH 4.50 (glycolic, lactic acid) or pH 5.00 (citric acid), UV 1 hr
[3] = test system: Antibody A; experiment: Discoloration (yellowing) of Antibody A formulations after UV-B exposure; format: physicochemical; conditions: 20 mM and 50 mM pyridoxine; Antibody A 30 mg/mL; UV-B 4 hours
[4] = Color change of the antioxidant upon light; format: physicochemical
Description: P-amino benzoic acid (PABA) has a relatively powerful antioxidant effect.

[5] = test system: EPO binding to D11; experiment: Binding of EPO to D11 monoclonal antibody after UV-B exposure of the formulation; set-up: species or system human; conditions: for EPO binding activity to D11 during UV-B exposure: 0.1 mM antioxidant, UV-B up to 24 hours
Method: For the examples below involving exposure to UVB radiation, each sample was exposed to UVB light (λ≈302 nm) for varying times, using a UVP 8W model UVLMS-38 lamp at 4° C. The formulations were then analyzed using size exclusion chromatography high pressure liquid chromatography (SEC-HPLC). Aggregation (measured via SEC-HPLC analysis) and binding (measured using CM5 gold sensor chips) were measured to determine the effect of the antioxidant on aggregation and bioactivity of the therapeutic protein. The binding activity of therapeutic protein to a ligand (e.g. to an antibody or binding partner, or, in cases where the therapeutic was an antibody, binding activity to the specific target antigen or to protein A) was determined as follows. […] The therapeutic protein-binding ligand of interest was injected until the desired immobilization level was achieved (above 5000 response units). Three different therapeutic protein-binding ligands were measured—Antibody A's target antigen, Protein A, and D11 (an antibody that binds to erythropoietin). […] The remaining activated groups were blocked with 1.0 M ethanolamine-HCl, pH 8.5. A standard curve was prepared by using native forms of the therapeutic protein of interest. Native forms of the therapeutic protein were diluted in HBS-EP buffer (pH 7.4) to concentrations between 1 and 5 μg/mL, and then injected on the column, prepared as described above to obtain a standard curve. At the end of each sample run, regeneration buffer was used to wash away any bound therapeutic protein in preparation for subsequent injections. Various UV-stressed antibody formulations were also diluted in HBS-EP buffer (pH 7.4) to a concentration within the standard curve region, and injected to quantitate the loss of bioactivity to its respective ligand-binding partner. […] The protein was exposed to the same conditions as Antibody A and Antibody B for up to 24 hours.

[6] = test system: Antibody A binding to protein A; experiment: Binding of Antibody A to protein A (CM5 sensor chip) after UV-B exposure of the formulation; conditions: 20 mM antioxidant; pH 5.20 acetate buffer; 302 nm UV light over 24 hours
Method: (§1) For the examples below involving exposure to UVB radiation, each sample was exposed to UVB light (λ≈302 nm) for varying times, using a UVP 8W model UVLMS-38 lamp at 4° C. The formulations were then analyzed using size exclusion chromatography high pressure liquid chromatography (SEC-HPLC). Aggregation (measured via SEC-HPLC analysis) and binding (measured using CM5 gold sensor chips) were measured to determine the effect of the antioxidant on aggregation and bioactivity of the therapeutic protein. The binding activity of therapeutic protein to a ligand (e.g. to an antibody or binding partner, or, in cases where the therapeutic was an antibody, binding activity to the specific target antigen or to protein A) was determined as follows. […] The therapeutic protein-binding ligand of interest was injected until the desired immobilization level was achieved (above 5000 response units). Three different therapeutic protein-binding ligands were measured—Antibody A's target antigen, Protein A, and D11 (an antibody that binds to erythropoietin). […] The remaining activated groups were blocked with 1.0 M ethanolamine-HCl, pH 8.5. […] Various UV-stressed antibody formulations were also diluted in HBS-EP buffer (pH 7.4) to a concentration within the standard curve region, and injected to quantitate the loss of bioactivity to its respective ligand-binding partner.

[7] = test system: anti-streptavidin mAb (IgG2); experiment: SEC-HPLC aggregation of anti-streptavidin (IgG2) after UV-B exposure; format: physicochemical; conditions: 20 mM antioxidant; 1 mg/mL anti-streptavidin, 10 mM sodium acetate, 5% sorbitol, pH 5.00; 302 nm UV-B 24 hours
[8] = test system: Antibody A binding to its target antigen; experiment: Binding of Antibody A to its target antigen (CM5 sensor chip) after UV-B exposure of the formulation; conditions: 20 mM antioxidant; pH 5.20 acetate buffer; 302 nm UV light over 24 hours
Method: as §1

[9] = test system: EPO; experiment: SEC-HPLC aggregation/degradation of EPO after UV-B exposure; format: physicochemical, human; conditions: 20 mM antioxidant; 1 mg/mL EPO, 25 mM sodium phosphate, 125 mM sodium chloride, pH 6.90; 302 nm UV-B 24 hours
Method: For the examples below involving exposure to UVB radiation, each sample was exposed to UVB light (λ≈302 nm) for varying times, using a UVP 8W model UVLMS-38 lamp at 4° C. The formulations were then analyzed using size exclusion chromatography high pressure liquid chromatography (SEC-HPLC). Aggregation (measured via SEC-HPLC analysis) and binding (measured using CM5 gold sensor chips) were measured to determine the effect of the antioxidant on aggregation and bioactivity of the therapeutic protein. The SEC-HPLC conditions were as follows: a G3000 TOSOH SWXL column was used and the flowrate was set at 0.5 mL/min. […] FIG. 4 (EPO), FIG. 5 (anti-streptavidin), and FIG. 6 (Antibody A) show SEC-HPLC chromatograms of each proteins following exposure to 302 nm UV-B light for 24 hours. […] Each formulation was then exposed to 302 nm UV-B light for 24 hours. The protein formulation was then analyzed using SEC-HPLC.

[10] = test system: Antibody B binding to protein A; experiment: Binding of Antibody B to protein A after UV-B exposure of the formulation; conditions: 20 mM additive; pH 6.90 phosphate buffer; 0-24 hours UV-B
Method: For the examples below involving exposure to UVB radiation, each sample was exposed to UVB light (λ≈302 nm) for varying times, using a UVP 8W model UVLMS-38 lamp at 4° C. The formulations were then analyzed using size exclusion chromatography high pressure liquid chromatography (SEC-HPLC). Aggregation (measured via SEC-HPLC analysis) and binding (measured using CM5 gold sensor chips) were measured to determine the effect of the antioxidant on aggregation and bioactivity of the therapeutic protein.
The binding activity of therapeutic protein to a ligand (e.g. to an antibody or binding partner, or, in cases where the therapeutic was an antibody, binding activity to the specific target antigen or to protein A) was determined as follows. […] The therapeutic protein-binding ligand of interest was injected until the desired immobilization level was achieved (above 5000 response units). Three different therapeutic protein-binding ligands were measured—Antibody A's target antigen, Protein A, and D11 (an antibody that binds to erythropoietin). […] The remaining activated groups were blocked with 1.0 M ethanolamine-HCl, pH 8.5.
A standard curve was prepared by using native forms of the therapeutic protein of interest. Native forms of the therapeutic protein were diluted in HBS-EP buffer (pH 7.4) to concentrations between 1 and 5 μg/mL, and then injected on the column, prepared as described above to obtain a standard curve. At the end of each sample run, regeneration buffer was used to wash away any bound therapeutic protein in preparation for subsequent injections.
Various UV-stressed antibody formulations were also diluted in HBS-EP buffer (pH 7.4) to a concentration within the standard curve region, and injected to quantitate the loss of bioactivity to its respective ligand-binding partner.

[11] = test system: anti-streptavidin (IgG2 antibody); experiment: Thermal aggregation of anti-streptavidin at 52° C. for 10 days; format: physicochemical; conditions: 5% glycerol; anti-streptavidin, 50 mM sodium acetate pH 5.00; 10 days 52° C.
Method: The SEC-HPLC conditions were as follows: a G3000 TOSOH SWXL column was used and the flowrate was set at 0.5 mL/min. […] Anti-streptavidin was formulated in 50 mM sodium acetate at pH 5.00. These formulations were not exposed to UV radiation but assessed on their thermal stability.

[12] = PABA: doses as high as 12 grams per day; cited from earlier work
[13] = 20 mM benzoic acid derivative, Antibody A 5 mg/mL, 20 mM sodium acetate pH 5.00, UV-B 4° C. 3 hours
[14] = 5 mM or 1 mM preservative, Antibody A 1 mg/mL pH 5.00, UV 3 hours
[15] = 100 mM, Antibody A 1 mg/mL pH 5.00, UV 3 hours

Compound: Oc1cc(O)c2c(c1)O[C@H](c1ccc(O)c(O)c1)[C@H](O)C2 [epicatechin]
- solubility [1]: limited solubility

Compound: COc1cc(C(=O)O)ccc1O [vanillic acid]
- aggregation of Antibody A (SEC-HPLC) [2, 13]: able to significantly decrease the amount of aggregation

- appearance of formulation upon exposure to UV radiation [3]: caused the formulation to appear yellow
Compound: Cc1ncc(CO)c(CO)c1O [pyridoxine]
- solubility [1]: highly soluble
- oxidation and aggregation of Antibody A ([2]; 20 mM and 50 mM pyridoxine, Antibody A 30 mg/mL, UV-B 4 hours): did protect the protein from oxidation and aggregation
- color change upon light [4]: changes to an orange-brown color upon light

Compound: Cc1cccc(O)c1 [m-cresol]
- aggregation of Antibody A (SEC-HPLC) [2, 14]: able to significantly decrease the amount of aggregation

Compound: O=C(O)/C=C/C(=O)O [fumaric acid]
- aggregation of Antibody A (SEC-HPLC) [2, 15]: able to protect Antibody A from aggregation

Compound: O=C(O)c1cc(O)c(O)c(O)c1 [gallic acid]
- aggregation of Antibody A (SEC-HPLC) [2, 13]: able to significantly decrease the amount of aggregation

Compound: O=C(O)c1ccc(O)c(O)c1 [protocatechuic acid]
- aggregation of Antibody A (SEC-HPLC) [2, 13]: able to significantly decrease the amount of aggregation

Compound: O=C(O)c1ccc(O)cc1 [p-hydroxybenzoic acid]
- aggregation of Antibody A (SEC-HPLC) [2, 13]: able to significantly decrease the amount of aggregation

- EPO binding to D11 after UV ([5]; 5 mM sulisobenzone, EPO 40 kU/mL, pH 6.90, UV 0-8 hours at 4° C.): able to protect EPO binding to D11
Compound: COc1cc(O)c(C(=O)c2ccccc2)cc1S(=O)(=O)O [sulisobenzone]

- UV-B protection of Antibody A (aggregation, SEC-HPLC) ([2]; 100 mM): most effective
Compound: O=C(O)CO [Glycolic acid, glycolic acid]

Compound: CCCOC(=O)c1cc(O)c(O)c(O)c1 [Propyl gallate, propyl gallate]
- aggregation of Antibody A (SEC-HPLC) ([2]; 10 mM propyl gallate, pH 5.00, UV 3 hours): able to significantly reduce the amount of aggregation

Compound: COc1cc(/C=C/C(=O)O)cc(OC)c1O [sinapic acid]
- EPO binding activity to D11 during UV-B exposure [5]: able to protect the EPO from degradation and preserve its binding activity

- aggregation of Antibody A ([2]; 25 mM cytosine (FIG. 21), Antibody A 1 mg/mL pH 5.00, UV 1, 2, or 3 hours): able to prevent aggregation
Compound: Nc1cc[nH]c(=O)n1 [Cytosine, cytosine]

- UV-B protection of Antibody A (aggregation, SEC-HPLC) ([2]; 100 mM): fairly weak
Compound: O=C(O)CC(O)(CC(=O)O)C(=O)O [citric acid]

Compound: Oc1ccccc1 [phenol]
- aggregation of Antibody A (SEC-HPLC) [2, 14]: able to significantly decrease the amount of aggregation

- binding of Antibody A to protein A after UV exposure [6]: preserved
- amount of aggregate of Antibody A (SEC-HPLC) ([2]; 20 mM antioxidant, 1 mg/mL Antibody A, 10 mM sodium acetate, 9% sucrose, pH 5.20, 302 nm UV-B 24 hours): dramatically reduced
- binding of EPO to D11 mAb after UV light exposure ([5]; 20 mM antioxidant, up to 24 hours UV): able to significantly preserve
- amount of aggregate of anti-streptavidin (SEC-HPLC) [7]: dramatically reduced
- binding of Antibody A to its target antigen after UV exposure [8]: preserved
- amount of aggregate of EPO (SEC-HPLC) [9]: dramatically reduced
- binding of Antibody B to protein A after UV-B exposure [10]: prevented UV-B induced degradation
Compound: O=C(/C=C/c1ccc(O)c(O)c1)O[C@@H]1C[C@](O)(C(=O)O)C[C@@H](O)[C@H]1O [chlorogenic acid]

- EPO activity (binding to D11) after UV-B ([5]; 20 mM racemic N-acetyl-tryptophan, 40 kU/mL EPO pH 6.90, UV 0 to 24 hours): preserved
Compound: CC(=O)N[C@@H](Cc1c[nH]c2ccccc12)C(=O)O (racemic) [N-acetyl-tryptophan]
- solubility [1]: more soluble than free tryptophan

- effect of added glycerol on thermal aggregation caused by ferulic and coumaric acid [11]: counter-acted that thermal aggregation
Compound: OCC(O)CO [glycerol]

Compound: O=C(O)/C=C/c1ccc(O)c(O)c1 [caffeic acid]
- EPO binding activity to D11 during UV-B exposure [5]: able to protect the EPO from degradation and preserve its binding activity

Compound: Cc1ncc(C[n+]2csc(CCO)c2C)c(N)n1 [Thiamine, thiamine]
- solubility [1]: more soluble than the cinnamic acids or the benzoic acid derivatives
- aggregation of Antibody A (SEC-HPLC) ([2]; thiamine as low as 5 mM, Antibody A 3 mg/mL, UV-B 4 hours): able to significantly inhibit Antibody A aggregation
- toxicity in humans [12]: no known toxicity

Compound: catechin
- percent binding of EPO to D11 after UV ([5]; 20 mM catechin, EPO 40 kU/mL, 25 mM sodium phosphate, 125 mM sodium chloride, 0.005% Tween-80, pH 6.90, UV 0-8 hours): able to preserve EPO binding

Compound: COc1cc(C(=O)O)cc(OC)c1O [syringic acid]
- aggregation of Antibody A (SEC-HPLC) [2, 13]: able to significantly decrease the amount of aggregation

Compound: O=C(O)C1=C[C@@H](O)[C@@H](O)[C@H](O)C1 [shikimic acid]
- aggregation of Antibody A (SEC-HPLC) [2, 15]: able to protect Antibody A from aggregation
